Assay results reported in the supplement of paper PMC10307832.

How the values were obtained:
Test in all cases: relative viability (nuclei count vs DMSO), 5 days (fraction); higher = more cells survive
Linsitinib + Phenformin = compound: C[C@]1(O)C[C@@H](c2nc(-c3ccc4ccc(-c5ccccc5)nc4c3)c3c(N)nccn32)C1 [Linsitinib] + N=C(N)NC(=N)NCCc1ccccc1 [Phenformin] (partner 250 µM)
How it was run: (§1)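 Lung cancer cell lines, seeded in 1536-well plates, were treated the following day by pin tool with a single drug or with five library-drug doses (not always all listed) in √10 steps on top of a fixed anchor-drug dose. Cells were fixed and nuclei stained in one step after 5 days, and nuclei were counted. Relative viability is the nuclei count for treated wells divided by that for vehicle wells, reported as medians of duplicate plates.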

Ispinesib + Tozasertib = compound: Cc1ccc(C(=O)N(CCCN)[C@@H](c2nc3cc(Cl)ccc3c(=O)n2Cc2ccccc2)C(C)C)cc1 [Ispinesib] + Cc1cc(Nc2cc(N3CCN(C)CC3)nc(Sc3ccc(NC(=O)C4CC4)cc3)n2)n[nH]1 [Tozasertib] (partner 0.1 µM)
How it was run: as §1

Ispinesib + Lapatinib = compound: Cc1ccc(C(=O)N(CCCN)[C@@H](c2nc3cc(Cl)ccc3c(=O)n2Cc2ccccc2)C(C)C)cc1 [Ispinesib] + CS(=O)(=O)CCNCc1ccc(-c2ccc3ncnc(Nc4ccc(OCc5cccc(F)c5)c(Cl)c4)c3c2)o1 [Lapatinib] (partner 2 µM)
How it was run: as §1

Ispinesib = compound: Cc1ccc(C(=O)N(CCCN)[C@@H](c2nc3cc(Cl)ccc3c(=O)n2Cc2ccccc2)C(C)C)cc1 [Ispinesib]
How it was run: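 Acceptance criteria were a control CV below 25% and at least one doubling per plate. Lung cancer cell lines in 1536-well plates got five library-drug doses (not always all listed) √10 apart by pinning and were left 5 days with no medium change. Viability divides treated-well nuclei by vehicle-well nuclei and is the median across plates. Nuclei were counted by MetaXpress from 4× Hoechst images.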

Row | Cell Line | relative viability (Linsitinib + Phenformin; first compound 0.01 µM) | relative viability (Linsitinib + Phenformin; first compound 0.03162 µM) | relative viability (Linsitinib + Phenformin; first compound 0.1 µM) | relative viability (Linsitinib + Phenformin; first compound 0.3162 µM) | relative viability (Linsitinib + Phenformin; first compound 1 µM) | relative viability (Ispinesib + Tozasertib; first compound 0.001 µM) | relative viability (Ispinesib + Tozasertib; first compound 0.003162 µM) | relative viability (Ispinesib + Tozasertib; first compound 0.01 µM) | relative viability (Ispinesib + Tozasertib; first compound 0.03162 µM) | relative viability (Ispinesib + Tozasertib; first compound 0.1 µM) | relative viability (Ispinesib + Lapatinib; first compound 0.001 µM) | relative viability (Ispinesib + Lapatinib; first compound 0.003162 µM) | relative viability (Ispinesib + Lapatinib; first compound 0.01 µM) | relative viability (Ispinesib + Lapatinib; first compound 0.03162 µM) | relative viability (Ispinesib + Lapatinib; first compound 0.1 µM) | relative viability (Ispinesib; 0.001 µM) | relative viability (Ispinesib; 0.003162 µM) | relative viability (Ispinesib; 0.01 µM) | relative viability (Ispinesib; 0.03162 µM) | relative viability (Ispinesib; 0.1 µM)
1 | NCI-H1395 | 0.442 | 0.462 | 0.454 | 0.468 | 0.423 | 0.778 | 0.874 | 0.808 | 0.58 | 0.404 | 1.1 | 1.11 | 0.779 | 0.545 | 0.33 | 0.95 | 1.06 | 0.854 | 0.44 | 0.354
2 | NCI-H1437 | 0.281 | 0.321 | 0.303 | 0.272 | 0.288 | 0.449 | 0.442 | 0.434 | 0.378 | 0.272 | 0.98 | 0.928 | 0.901 | 0.419 | 0.206 | 1.07 | 1.11 | 1.14 | 0.995 | 0.247
3 | NCI-H1650 | 0.477 | 0.406 | 0.489 | 0.272 | 0.254 | 0.382 | 0.364 | 0.397 | 0.139 | 0.257 | 0.799 | 0.715 | 0.387 | 0.211 | 0.208 | 1.07 | 1.02 | 0.912 | 0.261 | 0.196
4 | NCI-H1651 | 0.324 | 0.344 | 0.304 | 0.272 | 0.311 | 0.692 | 0.776 | 0.968 | 0.824 | 0.234 | 0.974 | 1.02 | 1.04 | 0.234 | 0.187 | 1.06 | 1.05 | 1.06 | 0.927 | 0.549
5 | NCI-H1666 | 0.539 | 0.394 | 0.534 | 0.314 | 0.511 | 0.56 | 0.601 | 0.613 | 0.542 | 0.454 | 0.703 | 0.801 | 0.596 | 0.279 | 0.292 | 0.997 | 1.05 | 0.953 | 0.79 | 0.508
6 | NCI-H1734 | 0.449 | 0.392 | 0.367 | 0.363 | 0.315 | 0.258 | 0.121 | 0.25 | 0.254 | 0.218 | 1.16 | 1.11 | 1.4 | 0.408 | 0.296 | 0.971 | 1.01 | 1.09 | 0.612 | 0.262
7 | NCI-H1755 | 0.66 | 0.64 | 0.629 | 0.372 | 0.503 | 0.529 | 0.627 | 0.595 | 0.638 | 0.46 | 1.02 | 1.16 | 1.09 | 0.41 | 0.203 | 0.972 | 1.1 | 1.1 | 0.745 | 0.351
8 | NCI-H1793 | 0.362 | 0.373 | 0.369 | 0.271 | 0.282 | 0.322 | 0.345 | 0.724 | 0.288 | 0.368 | 0.655 | 0.84 | 0.909 | 0.377 | 0.238 | 0.977 | 1 | 1.19 | 0.69 | 0.201
9 | NCI-H1915 | 0.371 | 0.389 | 0.247 | 0.339 | 0.373 | 0.444 | 0.528 | 0.498 | 0.462 | 0.315 | 0.958 | 1.06 | 1 | 0.363 | 0.139 | 0.971 | 1.09 | 1.02 | 0.451 | 0.209
10 | NCI-H1944 | 0.217 | 0.259 | 0.192 | 0.165 | 0.159 | 0.263 | 0.249 | 0.275 | 0.225 | 0.234 | 0.863 | 0.799 | 1.01 | 0.528 | 0.27 | 1.02 | 0.997 | 1.07 | 0.425 | 0.306
11 | NCI-H1975 | 0.396 | 0.417 | 0.413 | 0.38 | 0.396 | 0.964 | 0.956 | 0.795 | 0.557 | 0.215 | 0.931 | 0.907 | 0.71 | 0.302 | 0.179 | 1 | 0.952 | 1 | 0.742 | 0.184
12 | NCI-H1993 | 0.523 | 0.465 | 0.572 | 0.526 | 0.526 | 0.54 | 0.509 | 0.574 | 0.519 | 0.588 | 0.871 | 0.899 | 0.764 | 0.759 | 0.58 | 0.959 | 1.05 | 1.05 | 0.912 | 0.651
13 | NCI-H2009 | 0.479 | 0.47 | 0.434 |  | 0.367 | 0.788 | 0.837 | 0.786 | 0.706 | 0.489 | 0.954 | 0.781 | 0.558 | 0.142 | 0.305 | 1.03 | 1.02 | 1.04 | 0.606 | 0.481
14 | NCI-H2023 | 0.382 | 0.349 | 0.464 | 0.296 | 0.297 | 0.378 | 0.399 | 0.378 | 0.211 | 0.202 | 0.771 | 0.819 | 0.424 | 0.134 | 0.115 | 1.08 | 0.961 | 1.06 | 0.387 | 0.177
